# Several values for one entry are separate records, joined by “and”; a condition that tells them apart may be missing. Equal values may be shown once.
# Experiments:
# PPM1D1–420 [1] = target: T1, PPM1D1–420 (Homo sapiens, UniProt O15297); test: Differential scanning fluorimetry (DSF); type: binding; set-up: key to DSF Trial 1 (Tm) / DSF Trial 2 (Tm) / DSF Trial 3 (Tm) / DSF average (Tm) / DSF melting temperature with GSK2830371 / DSF melting temperature with GSK2830371, Average: melting temperature Tm in °C
# T1 construct: PPM1D1–420 was PCR-amplified from the synthesized gene with BsaI sites; His(6)-SUMO (N, cleaved yes); made in house; host or cells: E. coli BL21 (DE3)
# T1 sequence (O15297 1-420): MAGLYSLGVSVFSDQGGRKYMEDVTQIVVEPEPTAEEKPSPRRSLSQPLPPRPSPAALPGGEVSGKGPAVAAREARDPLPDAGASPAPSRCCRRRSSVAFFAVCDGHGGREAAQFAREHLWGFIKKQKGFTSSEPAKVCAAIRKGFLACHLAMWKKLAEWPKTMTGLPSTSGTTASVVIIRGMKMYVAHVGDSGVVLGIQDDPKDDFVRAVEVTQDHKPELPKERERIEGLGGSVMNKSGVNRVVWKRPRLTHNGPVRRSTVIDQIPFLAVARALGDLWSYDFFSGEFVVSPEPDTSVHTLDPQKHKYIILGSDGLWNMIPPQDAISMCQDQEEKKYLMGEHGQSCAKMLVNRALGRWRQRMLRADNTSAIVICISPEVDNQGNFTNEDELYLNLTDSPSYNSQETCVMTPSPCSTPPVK
# Description: The purified protein constructs were mixed in the assay buffer containing 25 mM HEPES pH 7.5, 10 mM MgCl2, 150 mM NaCl. The sample preparation for the DSF assay included incubating the protein constructs (final concentration 0.2–0.4 mg/mL) with either DMSO alone (control) or with 40 µM GSK2830371 for 30 min before the addition of the Sypro orange dye (final concentration 10×). The final reaction volume of 10 µL was pipetted into a 384 multi-well clear plate (Light Cycler 480), sealed using a foil and spun down at 1000 × g for 2 min. The fluorescence emission intensity of the Sypro Orange dye was monitored in a LightCycler-480 instrument by running the Protein Melt program. The program was run in a continuous acquisition mode from 25 °C to 95 °C with a ramp rate of 0.06 °C/s (with 10 acquisitions/°C). The data (first derivative of the fluorescence signal as a function of temperature) was analyzed using the LightCycler-480 software for measuring the Tm values with and without the compound. A separate control with buffer alone and buffer with compound was run in the same plate to subtract out the potential interactions of the buffer components and/or the compound with the dye.
# PPM1DΔhinge = target: T2, PPM1DΔhinge (Homo sapiens, UniProt O15297, DEL155-163/G166S/M164G/T165G); test: Surface plasmon resonance (SPR); type: binding
# T2 construct: PPM1D1–154-GGS-167–420 (PPM1D∆hinge); His(6)-SUMO (N, cleaved yes); made in house; host or cells: E. coli BL21 (DE3)
# T2 sequence (O15297 with tags, fused parts or gaps DEL155-163/M164G/T165G/G166S): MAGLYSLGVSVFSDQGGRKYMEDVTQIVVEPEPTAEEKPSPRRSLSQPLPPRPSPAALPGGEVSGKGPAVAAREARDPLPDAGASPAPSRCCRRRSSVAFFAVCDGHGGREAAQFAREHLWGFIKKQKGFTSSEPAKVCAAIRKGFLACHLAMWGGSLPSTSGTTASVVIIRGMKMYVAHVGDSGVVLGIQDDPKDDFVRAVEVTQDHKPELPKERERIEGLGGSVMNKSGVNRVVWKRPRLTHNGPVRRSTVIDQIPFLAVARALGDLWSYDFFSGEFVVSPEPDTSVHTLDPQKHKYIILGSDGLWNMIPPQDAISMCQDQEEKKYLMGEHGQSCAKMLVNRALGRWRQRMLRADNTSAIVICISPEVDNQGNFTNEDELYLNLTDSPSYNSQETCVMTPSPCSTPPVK
# Description: SPR was carried out on the Biacore S200 (GE Healthcare) using Series S sensor chip NTA (GE BR-1005-32). The preparation of the chip surface was conducted according to the manufacturer’s indications. The running buffer contained 50 mM Tris (pH 7.5), 50 mM NaCl, 1 mM MgCl2, 0.5 mM TCEP, 0.005% (v/v) P20 surfactant, and 2% DMSO. PPM1D1–420 and PPM1D∆Flap were run under single-cycle mode due to the slow-off-rate kinetics. The two proteins were immobilized on the chip surface in flow cells 2 and 3 with a signal of ~1500–2000 RU at a rate of 5 μL/min while flow cell 1 was left blank as a reference. The running buffer was injected three times followed by the GSK2830371 analyte in solution. Injections were carried out at a flow rate of 50 μL/min with the analyte in a concentration series of 5-point, 3-fold ending at 400 nM top dose. The association and dissociation phases were monitored for 90 s and 600 s, respectively. Collected data were evaluated using the Biacore S200 Evaluation Software under 1:1 binding mode. PPM1D∆Hinge was run under multi-cycle mode due to its fast-on/fast-off kinetics. The protein was immobilized to give a signal of ~ 3000 RU. GSK2830371 analyte in solution was injected at a flow rate of 90 μL/min in a 10-pt, 2-fold concentration series ending at 15 μM top dose. The association and dissociation phases were monitored for 45 s and 150 s, respectively. Since GSK2830371 had issues with solubility/aggregation at high concentrations that caused artifacts in sensorgrams, only steady-state analysis was performed to extract Kd.
# PPM1D1–420 [2] = target: T1, PPM1D1–420; test: Sedimentation velocity analytical ultracentrifugation (SV-AUC); conditions: PPM1D1–420 15 µM with 3x compound, 2% DMSO
# Description: AUC experiments were done using an Optima ultracentrifuge (Beckman Instruments). Proteins were dialyzed at 4 °C prior to each experiment in 20 mM HEPES (pH 7.4), 100 mM NaCl, 5 mM MgCl2, 0.1 mM TCEP. Sedimentation velocity (SV-AUC) experiments were conducted using an An50 Ti rotor at 50,000 rpm and 20 °C following temperature equilibration for 1 h prior to the start of the experiment. […] We, therefore, present these SV-AUC data as relative sedimenting populations with their experimentally observed S values. Absorbance data were collected at 280 nm. SedFIT was used to model the sedimentation coefficient distributions [c(s) analysis] for each experiment[38],[39]. Data were then refined using the c(s) with a conformational change model to better estimate the relative populations observed for PPM1D1–420. SedNTerp was used to calculate protein parameters. Images were generated using GUSSI[41].
# [3] = source data Fig 3C, with GSK, in °C (unit assumed)
structure (smiles),measurement,setting,value
Cc1ncc(Cl)cc1NCc1ccc(C(=O)N[C@@H](CC2CCCC2)C(=O)NC2CC2)s1 [GSK2830371],"DSF melting temperature with GSK2830371, Average","PPM1D1–420 [1]; PPM1D 1-420, average of 4 trials, in °C (unit assumed)",59.7917
same,DSF melting temperature with GSK2830371,"PPM1D1–420 [1]; PPM1D 1-420, individual trials, in °C (unit assumed)",59.846 and 59.6596 and 59.8596 and 59.8015
same,ΔTm at 40 µM,"PPM1D1–420 [1]; PPM1D1–420, 40 µM compound, read-out: thermal shift by DSF",~8 °C
same,DSF Trial 1 (melting temperature),"PPM1D1–420 [1]; Sup Fig 2D, protein with GSK vs WT (DMSO), trial 1",59.84 ˚C
same,DSF Trial 2 (melting temperature),"PPM1D1–420 [1]; Sup Fig 2D, protein with GSK vs WT (DMSO), trial 2",59.65 ˚C
same,DSF Trial 3 (melting temperature),"PPM1D1–420 [1]; Sup Fig 2D, protein with GSK vs WT (DMSO), trial 3",59.85 ˚C
same,DSF Average (melting temperature),"PPM1D1–420 [1]; Sup Fig 2D, protein with GSK, average of trials",59.78 ˚C
same,DSF average (Tm),"PPM1D1–420 [1]; source data Fig 3C, with GSK, column head empty, in °C (unit assumed)",59.78
same,DSF Trial 1 (Tm),PPM1D1–420 [1]; [3],59.84
same,DSF Trial 2 (Tm),PPM1D1–420 [1]; [3],59.65
same,DSF Trial 3 (Tm),PPM1D1–420 [1]; [3],59.85
same,decrease in binding affinity by SPR upon hinge deletion,PPM1DΔhinge; PPM1DΔhinge versus PPM1D1–420,~ 1000 fold
same,Kd,"PPM1DΔhinge; PPM1DΔhinge, multi-cycle, steady-state analysis",1000 nM
same,sedimentation peak (SV-AUC) in presence of compound,PPM1D1–420 [2],2.69 S

# Source: PMC9246869, “Allosteric inhibition of PPM1D serine/threonine phosphatase via an altered conformational state” (Nature Communications, 2022)
